Results from US20160068818A1, “A METHOD FOR GENERATING INDUCED PLURIPOTENT STEM CELLS” (Glykos Finland Oy, priority 2013, published 2016).
“Also recorded” adds a separate entry of the source.

Key:
Assay type in all cases: cell-based, human
[1] = test system: hESC and hiPSC (FES 29, HEL 11.4) attachment to ECA; assay: Validation of binding specificity: inhibition of cell attachment onto ECA; conditions: for inhibition of cell attachment onto ECA: 100 mM in culture media, attached cells counted after 20 h; for total number of attached cells with vs without pinacidil: on ECA, counted 20 h after plating
Protocol: Cells were passaged and plated as described earlier. The two compounds expected to act as specific binding inhibitors for ECA were lactose monohydrate (Sigma-Aldrich, 100 mM) and lacto-N-neotetraose (Kyowa Hakko Kogyo, 100 mM). Saccharose (Sigma-Aldrich, 100 mM) was used as a control. The inhibitors were added to culture media at the time of passaging and the attached cells were counted after 20 hours.
To assess the specificity of the cell-lectin interaction in supporting stem cell attachment to the growth surface, we performed inhibition experiments with specific disaccharide inhibitors and control disaccharides. […] The experiments were performed either in the presence (FIG. 4A) of absence (FIG. 4B) of pinacidil. Even if the effect of the inhibitors was similar in both conditions, the total number of attached cells was […] with pinacidil.
The attached cells were counted 20 h after plating. Data represent the mean (±SEM) of both cell lines, FES 29 and HEL 11.4. The total number of attached cells was 2-4 fold higher when Pinacidil was used (p<0.001).

[2] = test system: hPSC cells; assay: Clonogenicity assay on dispersed single cells; conditions: pinacidil 100 μM during passaging
Protocol: Cells were dissociated with TrypLE for 5 minutes and passed through an 80-μm cell strainer (Becton Dickinson). Dissociated single cells from either ECA or Matrigel were seeded onto both ECA and Matrigel (35 cells/cm^2) and cultured in mouse embryonic fibroblast-conditioned medium (CM) supplemented with 8 ng/ml basic fibroblast growth factor (bFGF). Pinacidil (100 μM) was used during passaging. To evaluate clonogenic capacity, cells were alkaline phosphatase stained and colony numbers were counted 10 days after plating.
The ability of the ECA matrix to support clonogenicity of hPSC cells was studied by plating dispersed cells first adapted to ECA or Matrigel for at least two passages on either of the two matrices at the density of 35 cells/cm^2.

[3] = test system: hPSC lines FES29 and HEL 11.4; assay: Long-term culture of hPSC lines on ECA-coated plates (markers, qPCR array, karyotype); conditions: mEF conditioned media
Protocol: Cells were passaged by using 0.1 mg/ml collagenase IV (Invitrogen) for 5 min at +37° C. and harvested onto ECA (Sigma-Aldrich) and Matrigel (Becton Dickinson) coated plates and cultured either in StemPro® or in mEF conditioned-medium (CM) (KO-DMEM supplemented with 20% KO-SR, 2 mM Glutamax, 0.1 mM β-mercaptoethanol, 0.1 mM non-essential amino acids (NEAA), all from Invitrogen, Carlsbad, Calif., USA) and supplemented with 8 ng/ml recombinant human bFGF (Invitrogen, Carlsbad, Calif., USA). Pinacidil (Sigma-Aldrich, 100 μM) was added to culture media during passaging. In some experiments, Y-27632 (10 μM) was added to culture media during passaging. In all experiments MatrigelTM (BD Biosciences) was used as control matrix. The Matrigel plates were prepared as recommended by the manufacturer. […] Real time SYBR Green quantitative PCR (qPCR) analyses was performed with Corbett Rotor-Gene 6000 (Corbett Life Science, Sydney, Australia) using the following conditions: 95° C. […] The data was analyzed according to comparative Ct method (Applied Biosystems, User Bulletin #2). […] All samples and controls were analyzed in duplicates. […] Karyotype was detected by G-banding technique in cytogenetics laboratory of the […] […] Long-term culturing on ECA-coated plates was evaluated with hPSCs lines (FES29 and HEL 11.4) and the results were compared to the same cell lines cultured on Matrigel. […]

CC(=O)N[C@H]1[C@H](O[C@H]2[C@@H](O)[C@@H](CO)O[C@@H](O[C@H]3[C@H](O)[C@@H](O)C(O)O[C@@H]3CO)[C@@H]2O)O[C@H](CO)[C@@H](O[C@@H]2O[C@H](CO)[C@H](O)[C@H](O)[C@H]2O)[C@@H]1O (mixture of isomers) [lacto-N-neotetraose]
inhibition of cell attachment onto ECA [1]: as effective as lactose; also recorded: inhibited significantly

O.OC[C@H]1O[C@@H](O[C@H]2[C@H](O)[C@@H](O)C(O)O[C@@H]2CO)[C@H](O)[C@@H](O)[C@H]1O (some centres unmarked) [Lactose, lactose monohydrate]
inhibition of cell attachment onto ECA ([1]; listed as lactose monohydrate, monohydrate): inhibited significantly | inhibition of cell attachment onto ECA ([1]; monohydrate): inhibited cell attachment effectively

CC(N/C(=N\C#N)Nc1ccncc1)C(C)(C)C (centres unmarked) [pinacidil]
development and survival of single-cell derived clones [2]: highly useful | cell attachment and morphology on ECA without/with Rho-associated kinase inhibitor during passaging [3]: Without pinacidil the cells did not attach as effectively | total number of attached cells with vs without pinacidil [1]: 4 fold | total number of attached cells with vs without pinacidil ([1]; listed as Pinacidil): 2-4 fold

OC[C@H]1O[C@@](CO)(O[C@H]2O[C@H](CO)[C@@H](O)[C@H](O)[C@H]2O)[C@@H](O)[C@@H]1O [saccharose]
inhibition of cell attachment onto ECA [1]: no inhibitory activity
